Laboratory results taken from patent publication EP4800016A1, “METTL3 INHIBITOR” (Hangzhou Bangshun Pharmaceutical Co., Ltd., priority 2023, dated 2025).

These molecules were tested against T1, METTL3/14 (Homo sapiens, UniProt Q86U44) (assay: METTL3/14 methyltransferase activity assay (HTRF)). Conditions: 10 concentrations, 3-fold dilution from 10 µM.
T1 construct: purchased active motif 31570
Assay type: biochemical
Procedure: The final initial concentration of the compound was 10 µM, with 3-fold serial dilution to give a total of 10 concentrations. 100 nL of the compound was transferred to a 384-well plate and centrifuged at 1000 RPM. 2.5 µL of METTL3/14 (active motif, Cat No. 31570) was added to the test wells and incubated at 25°C for 10 min. 2.5 µL of METTL3-Biotin & SAM (GenScript) was added to the test wells andincubated at 25°C for 60 min. 2.5 µL of YTHDF1 (active motif, Cat No. 31608) was added to the test wells and centrifuged at 1000 RPM. 2.5 µL of Streptavidin-Tb (Perkin Elmer Cat No. 61SATLB) & Flag-mede (Perkin Elmer Cat No. 61FG2DLA) was added to the test wells and centrifuged at 1000 RPM. Incubated at 25°C for 60 min. HTRF was measured using a Plate reader. The results of each compound are shown in Table 1, where A+indicates <10nM, A indicates 10-100nM, B indicates 100-1000nM, and C indicates >1000nM.

T1 sequence (Q86U44 whole entry): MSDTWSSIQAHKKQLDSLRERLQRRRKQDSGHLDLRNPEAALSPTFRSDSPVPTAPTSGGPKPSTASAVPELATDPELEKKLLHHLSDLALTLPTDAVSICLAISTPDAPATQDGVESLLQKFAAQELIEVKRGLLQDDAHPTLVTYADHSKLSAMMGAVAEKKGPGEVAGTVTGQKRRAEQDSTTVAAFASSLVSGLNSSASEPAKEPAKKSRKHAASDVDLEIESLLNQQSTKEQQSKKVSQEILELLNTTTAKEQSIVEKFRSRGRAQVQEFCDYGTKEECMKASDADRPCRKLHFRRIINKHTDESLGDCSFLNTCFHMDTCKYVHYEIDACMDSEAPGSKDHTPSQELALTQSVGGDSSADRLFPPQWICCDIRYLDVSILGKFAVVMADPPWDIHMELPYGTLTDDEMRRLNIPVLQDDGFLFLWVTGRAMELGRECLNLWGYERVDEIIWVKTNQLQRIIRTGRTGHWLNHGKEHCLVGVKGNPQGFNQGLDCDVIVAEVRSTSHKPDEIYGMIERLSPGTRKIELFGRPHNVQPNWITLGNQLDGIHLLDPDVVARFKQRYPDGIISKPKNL
T1 sequence (Q9HCE5 whole entry partner): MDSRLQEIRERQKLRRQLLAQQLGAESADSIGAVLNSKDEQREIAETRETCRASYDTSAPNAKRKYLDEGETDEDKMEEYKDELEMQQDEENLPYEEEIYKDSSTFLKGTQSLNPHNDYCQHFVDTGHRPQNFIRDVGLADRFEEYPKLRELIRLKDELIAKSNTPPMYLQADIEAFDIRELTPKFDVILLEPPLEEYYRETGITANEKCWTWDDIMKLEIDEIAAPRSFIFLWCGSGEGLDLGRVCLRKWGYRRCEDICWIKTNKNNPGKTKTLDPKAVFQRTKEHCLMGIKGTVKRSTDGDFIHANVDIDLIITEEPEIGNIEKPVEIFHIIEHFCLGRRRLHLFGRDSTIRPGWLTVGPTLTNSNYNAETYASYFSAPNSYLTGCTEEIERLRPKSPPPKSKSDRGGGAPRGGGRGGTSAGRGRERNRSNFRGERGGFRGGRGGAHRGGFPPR

First: O=C(NCc1ccc2cc(CNC[C@H]3CCCO3)[nH]c2c1)c1cc(=O)n2cc3c(cc2n1)OCCO3 [Example 78, (R)-9-Oxo-N-((2-((((tetrahydrofuran-2-yl)methyl)amino)methyl)-1H-indol-6-yl)methyl)-2,3-dihydro-9H-[1,4]dioxino[2',3':4,5]pyrido[1,2-a]pyrimidine-7-carboxamide]
Second: O=C(NCc1ccc2cc(CNCC3CC(=C(F)F)C3)[nH]c2c1)c1cc(=O)n2cc3c(cc2n1)OCCO3 (stereo not shown) [Example 28, N-((2-((((3-(Difluoromethylene)cyclobutyl)methyl)amino)methyl)-1H-indol-6-yl)methyl)-9-oxo-2,3-dihydro-9H-[1,4]dioxino[2',3':4,5]pyrido[1,2-a]pyrimidine-7-carboxamide]
The IC50 of the first is lower: 10 to 100 nM for the first, 100 to 1000 nM for the second. The first is the more potent here.

First: O=C(NCc1ccc2cc(CNCC3CC4(CCC4)C3)[nH]c2c1)c1cc(=O)n2cc3c(cc2n1)OCO3 [Example 58, 8-Oxo-N-((2-(((spiro[3.3]heptan-2-ylmethyl)amino)methyl)-1H-indol-6-yl)methyl)-8H-[1,3]dioxolo[4',5':4,5]pyrido[1,2-a]pyrimidine-6-carboxamide]
Second: O=C(NCc1ccc2cc(CNCC34CCCC3C4)[nH]c2c1)c1cc(=O)n2cc3c(cc2n1)OCO3 (stereo not shown) [Example 60, N-((2-(((Bicyclo[3.1.0]hexan-1-ylmethyl)amino)methyl)-1H-indol-6-yl)methyl)-8-oxo-8H-[1,3]dioxolo[4',5':4,5]pyrido[1,2-a]pyrimidine-6-carboxamide]
The IC50 of the first is higher: 10 to 100 nM for the first, less than 10 nM for the second. The second is the more potent here.

First: O=C(NC1(c2ccc3cc(CNCC4CCC4)[nH]c3c2)CC1)c1cc(=O)n2cc3c(cc2n1)OCO3 [Example 42, N-(1-(2-(((Cyclobutylmethyl)amino)methyl)-1H-indol-6-yl)cyclopropyl)-8-oxo-8H-[1,3]dioxolo[4',5':4,5]pyrido[1,2-a]pyrimidine-6-carboxamide]
Second: [2H]C([2H])(NCC1CCC1)c1cc2ccc(CNC(=O)c3cc(=O)n4cc5c(cc4n3)OCO5)cc2[nH]1 [Example 62, N-((2-(((cyclobutylmethyl)amino)methyl-d2)-1H-indol-6-yl)methyl)-8-oxo-8H-[1,3]dioxolo[4',5':4,5]pyrido[1,2-a]pyrimidine-6-carboxamide]
The IC50 of the first is higher: 100 to 1000 nM for the first, less than 10 nM for the second.

`O=C(NCc1ccc2cc(CN3CCC(F)(F)CC3)[nH]c2c1)c1cc(=O)n2cc3c(cc2n1)OCO3` [Example 29, N-((2-((4,4-Difluoropiperidin-1-yl)methyl)-1H-indol-6-yl)methyl)-8-oxo-8H-[1,3]dioxolo[4',5':4,5]pyrido[1,2-a]pyrimidine-6-carboxamide] and `O=C(NCc1ccc2cc(CN3CCC(F)(F)CC3)[nH]c2c1)c1cc(=O)n2cc3c(cc2n1)OCCO3` [Example 27] fall in the same range of IC50: 10 to 100 nM for the first, 10 to 100 nM for the second.

`O=C(NCc1cc2[nH]c(CNCC3CCC3)cc2s1)c1cc(=O)n2cc3c(cc2n1)OCCO3` [Example 31, N-((5-(((cyclobutylmethyl)amino)methyl)-4H-thieno[3,2-b]pyrrol-2-yl)methyl)-9-oxo-2,3-dihydro-9H-[1,4]dioxino[2',3':4,5]pyrido[1,2-a]pyrimidine-7-carboxamide] and `O=C(NCc1c(F)cc2cc(CNCC3CCC3)[nH]c2c1F)c1cc(=O)n2cc3c(cc2n1)OCO3` [Example 75, N-((2-(((Cyclobutylmethyl)amino)methyl)-5,7-difluoro-1H-indol-6-yl)methyl)-8-oxo-8H-[1,3]dioxolo[4',5':4,5]pyrido[1,2-a]pyrimidine-6-carboxamide] fall in the same range of IC50: 10 to 100 nM for the first, 10 to 100 nM for the second.

First: O=C(NCc1ccc2cc(CN3CCOC4(CCC4)C3)[nH]c2c1)c1cc(=O)n2cc3c(cc2n1)OCCO3 [Example 81, N-((2-((5-oxa-8-azaspiro[3.5]nonan-8-yl)methyl)-1H-indol-6-yl)methyl)-9-oxo-2,3-dihydro-9H-[1,4]dioxino[2',3':4,5]pyrido[1,2-a]pyrimidine-7-carboxamide]
Second: O=C(NCc1ccc2cc(CNCc3ccc(F)s3)[nH]c2c1)c1cc(=O)n2cc3c(cc2n1)OCCO3 [Example 76, N-((2-((((5-fluorothiophen-2-yl)methyl)amino)methyl)-1H-indol-6-yl)methyl)-9-oxo-2,3-dihydro-9H-[1,4]dioxino[2',3':4,5]pyrido[1,2-a]pyrimidin-7-carboxamide]
The IC50 of the first is higher: 100 to 1000 nM for the first, 10 to 100 nM for the second. The second is the more potent here.

`O=C(NCc1ccc2cc(CNCc3ccc(F)s3)[nH]c2c1)c1cc(=O)n2cc3c(cc2n1)OCO3` [Example 82, N-((2-((((5-Fluorothiophen-2-yl)methyl)amino)methyl)-1H-indol-6-yl)methyl)-8-oxo-8H-[1,3]dioxolo[2',3':4,5]pyrido[1,2-a]pyrimidine-6-carboxamide] and `O=C(NCc1ccc2cc(CNCC3(C(F)(F)F)CC3)[nH]c2c1)c1cc(=O)n2cc3c(cc2n1)OCO3` [Example 40, 8-Oxo-N-((2-((((1-(trifluoromethyl)cyclopropyl)methyl)amino)methyl)-1H-indol-6-yl)methyl)-8H-[1,3]dioxolo[4',5':4,5]pyrido[1,2-a]pyrimidine-6-carboxamide] fall in the same range of IC50: 10 to 100 nM for the first, 10 to 100 nM for the second.

`O=C(NCc1ccc2cc(CNCC3CCC3)[nH]c2c1)c1cn2nccc(N3CCOCC3)c2n1` [Example 8, N-((2-(((Cyclobutylmethyl)amino)methyl)-1H-indol-6-yl)methyl)-8-morpholinoimidazo[1,2-b]pyridazine-2-carboxamide] and `O=C(NCc1ccc2cc(CNCC3CCC3)[nH]c2c1)c1cn2nccc2c(N2CCCC2)n1` [Example 15, N-((2-(((Cyclobutylmethyl)amino)methyl)-1H-indol-6-yl)methyl)-4-(pyrrolidin-1-yl)pyrazolo[1,5-a]pyrazine-6-carboxamide] fall in the same range of IC50: 100 to 1000 nM for the first, 100 to 1000 nM for the second.

`O=C(NCc1ccc2cc(CN3CCc4ccccc4C3)[nH]c2c1)c1cc(=O)n2cc3c(cc2n1)OCO3` [Example 34, N-((2-((3,4-dihydroisoquinolin-2(1H)-yl)methyl)-1H-indol-6-yl)methyl)-8-oxo-8H-[1,3]dioxolo[4',5':4,5]pyrido[1,2-a]pyrimidine-6-carboxamide] and `O=C(NCc1ccc2cc(CNC3CC(F)(F)C3)[nH]c2c1)c1cc(=O)n2cc3c(cc2n1)OCO3` [Example 39, N-((2-(((3,3-Difluorocyclobutyl)amino)methyl)-1H-indol-6-yl)methyl)-8-oxo-8H-[1,3]dioxolo[4',5':4,5]pyrido[1,2-a]pyrimidine-6-carboxamide] fall in the same range of IC50: 10 to 100 nM for the first, 10 to 100 nM for the second.

First: O=C(NCc1ccc2cc(CNCC3CCC3)[nH]c2c1)c1cn2ncc3c2c(n1)OCCO3 [Example 61, N-((2-(((Cyclobutylmethyl)amino)methyl)-1H-indol-6-yl)methyl)-7,8-dihydro-6,9-dioxa-2,2a,5-triazabenzo[cd]azulene-4-carboxamide]
Second: CNc1nc(C(=O)NCc2ccc3cc(CNCC4CCC4)[nH]c3c2)cn2nccc12 [Example 13, N-((2-(((Cyclobutylmethyl)amino)methyl)-1H-indol-6-yl)methyl)-4-(methylamino)pyrazolo[1,5-a]pyrazine-6-carboxamide]
The IC50 of the first is higher: 100 to 1000 nM for the first, 10 to 100 nM for the second.

`O=C(NCc1ccc2cc(CNCC3CCC3)[nH]c2c1)c1ccn(Cc2ccccc2)c(=O)c1` [Example 11, 1-Benzyl-N-((2-(((cyclobutylmethyl)amino)methyl)-1H-indol-6-yl)methyl)-2-oxo-1,2-dihydropyridine-4-carboxamide] and `O=C(NCc1ccc2cc(CNCC3CCC3)[nH]c2c1)c1cn2ncccc2n1` [Example 1, N-((2-(((Cyclobutylmethyl)amino)methyl)-1H-indol-6-yl)methyl)imidazo[1,2-b]pyridazine-2-carboxamide] fall in the same range of IC50: 10 to 100 nM for the first, 10 to 100 nM for the second.

`O=C(NCc1ccc2cc(CNCC3(C(F)(F)F)CCC3)[nH]c2c1)c1cc(=O)n2cc3c(cc2n1)OCO3` [Example 56, 8-Oxo-N-((2-((((1-(trifluoromethyl)cyclobutyl)methyl)amino)methyl)-1H-indol-6-yl)methyl)-8H-[1,3]dioxolo[4',5':4,5]pyrido[1,2-a]pyrimidine-6-carboxamide] and `O=C(NCc1ccc2cc(CNC3CCC(F)(F)CC3)[nH]c2c1)c1cc(=O)n2cc3c(cc2n1)OCO3` [Example 37, N-((2-(((4,4-Difluorocyclohexyl)amino)methyl)-1H-indol-6-yl)methyl)-8-oxo-8H-[1,3]dioxolo[4',5':4,5]pyrido[1,2-a]pyrimidine-6-carboxamide] fall in the same range of IC50: 10 to 100 nM for the first, 10 to 100 nM for the second.

`COc1ccc(CNc2nc(C(=O)NCc3ccc4cc(CNCC5CCC5)[nH]c4c3)cn3nccc23)cc1` [Example 14, N-((2-(((Cyclobutylmethyl)amino)methyl)-1H-indol-6-yl)methyl)-4-((4-methoxybenzyl)amino)pyrazolo[1,5-a]pyrazine-6-carboxamide] and `O=C(NCc1ccc2cc(CNCC3CCC3)[nH]c2c1)c1cnn2cccnc12` [Example 3, N-((2-(((Cyclobutylmethyl)amino)methyl)-1H-indol-6-yl)methyl)pyrazolo[1,5-a]pyrimidine-3-carboxamide] fall in the same range of IC50: 10 to 100 nM for the first, 10 to 100 nM for the second.

Compared with `O=C(NCc1ccc2cc(CNCC3CCC3)[nH]c2c1)c1cc(=O)n2cc3c(cc2n1)OC(F)(F)O3` [Example 30, N-((2-(((Cyclobutylmethyl)amino)methyl)-1H-indol-6-yl)methyl)-2,2-difluoro-8-oxo-8H-[1,3]dioxolo[4',5':4,5]pyrido[1,2-a]pyrimidine-6-carboxamide], `O=C(NCc1cc2[nH]c(CNCC34CC(F)(C3)C4)cc2cc1F)c1cc(=O)n2cc3c(cc2n1)OCO3` [Example 74, N-((5-fluoro-2-((((3-fluorobicyclo[1.1.1]pentan-1-yl)methyl)amino)methyl)-1H-indol-6-yl)methyl)-8-oxo-8H-[1,3]dioxolo[4',5':4,5]pyrido[1,2-a]pyrimidine-6-carboxamide] is lower in IC50: 10 to 100 nM for the first, less than 10 nM for the second. The second is the more potent here.
